Assay results published in US7598245B2 (Vertex Pharmaceuticals Incorporated, priority 2003, dated 2009).
Values joined by “and” are separate entries in the source; they are usually repeats but may differ in a detail not shown here. Equal values may be shown once.

Experiments:
FLT-3 = molecular target: T1, FLT-3 (Homo sapiens, UniProt P36888); assay: Inhibition of FLT-3, radiometric filter-binding assay; assay type: biochemical; conditions: 90 μM ATP, pE4Y substrate; read-out: Ki values (FLT-3)
T1 construct: 0.02% BSA and 3 nM FLT-3
T1 sequence (P36888 27-993): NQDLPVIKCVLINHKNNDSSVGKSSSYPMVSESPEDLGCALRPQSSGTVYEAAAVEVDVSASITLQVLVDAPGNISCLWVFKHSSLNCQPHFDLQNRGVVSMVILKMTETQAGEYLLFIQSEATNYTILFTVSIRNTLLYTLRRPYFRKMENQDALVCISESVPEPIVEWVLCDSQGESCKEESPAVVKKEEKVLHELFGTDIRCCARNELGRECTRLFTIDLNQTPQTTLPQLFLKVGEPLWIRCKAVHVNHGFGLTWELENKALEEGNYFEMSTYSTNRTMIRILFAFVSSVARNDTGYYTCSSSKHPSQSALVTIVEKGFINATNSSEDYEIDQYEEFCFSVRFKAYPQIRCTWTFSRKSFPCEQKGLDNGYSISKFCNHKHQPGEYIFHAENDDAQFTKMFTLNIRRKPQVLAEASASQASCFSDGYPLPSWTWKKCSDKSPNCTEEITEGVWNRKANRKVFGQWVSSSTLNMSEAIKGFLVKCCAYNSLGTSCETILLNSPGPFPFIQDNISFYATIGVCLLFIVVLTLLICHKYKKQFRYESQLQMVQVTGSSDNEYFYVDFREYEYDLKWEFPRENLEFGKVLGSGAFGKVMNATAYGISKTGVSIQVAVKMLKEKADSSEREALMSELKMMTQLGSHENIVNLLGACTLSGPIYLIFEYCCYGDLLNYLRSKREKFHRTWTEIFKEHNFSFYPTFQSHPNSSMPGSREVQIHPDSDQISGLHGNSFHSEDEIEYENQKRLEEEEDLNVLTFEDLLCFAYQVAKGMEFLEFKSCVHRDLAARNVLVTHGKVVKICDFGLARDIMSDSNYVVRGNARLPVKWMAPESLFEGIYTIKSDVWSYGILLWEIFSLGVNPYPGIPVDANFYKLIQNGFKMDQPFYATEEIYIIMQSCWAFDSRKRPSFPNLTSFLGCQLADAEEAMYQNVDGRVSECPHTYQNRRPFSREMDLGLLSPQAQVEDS
Description: Compounds were screened for their ability to inhibit FLT-3 activity using a radiometric filter-binding assay. This assay monitors the ^33P incorporation into a substrate poly(Glu, Tyr) 4:1 (pE4Y). Reactions were carried out in a solution containing 100 mM HEPES (pH 7.5), 10 mM MgCl2, 25 mM NaCl, 1 mM DTT, 0.01% BSA and 2.5% DMSO. Final substrate concentrations in the assay were 90 μM ATP and 0.5 mg/mL pE4Y (both from Sigma Chemicals, St Louis, Mo.). The final concentration of compounds is generally between 0.01 and 5 μM. Typically, a 12-point titration was conducted by preparing serial dilutions from 10 mM DMSO stock of test compound. Reactions were carried out at room temperature.
Two assay solutions were prepared. Solution 1 contains 100 mM HEPES (pH 7.5), 10 mM MgCl2, 25 mM NaCl, 1 mg/ml pE4Y and 180 μM ATP (containing 0.3 μCi of [γ-^33P]ATP for each reaction). Solution 2 contains 100 mM HEPES (pH 7.5), 10 mM MgCl2, 25 mM NaCl, 2 mM DTT, 0.02% BSA and 3 nM FLT-3. The assay was run on a 96 well plate by mixing 50 μL each of Solution1 and 2.5 mL of the test compounds. The reaction was initiated with Solution2. After incubation for 20 minutes at room temperature, the reaction was stopped with 50 μL of 20% TCA containing 0.4 mM of ATP. All of the reaction volume was then transferred to a filter plate and washed with 5% TCA by a Harvester9600 from TOMTEC (Hamden, Conn.). The amount of ^33P incorporation into pE4y was analyzed by a Packard TopCount Microplate Scintillation Counter (Meriden, Conn.). The data was fitted using Prism software to get an IC50 or Ki.

GSK-3β (AA 1-420) = GSK-3β (AA 1-420) (Homo sapiens, UniProt P49841); assay: Inhibition of GSK-3, coupled enzyme system; assay type: biochemical; conditions: 20 μM ATP, 30° C.
Description: Compounds are screened for their ability to inhibit GSK-3β (AA 1-420) activity using a standard coupled enzyme system [Fox et al. Protein Sci. 1998, 7, 2249]. Reactions are carried out in a solution containing 100 mM HEPES (pH 7.5), 10 mM MgCl2, 25 mM NaCl, 300 μM NADH, 1 mM DTT and 1.5% DMSO. Final substrate concentrations in the assay are 20 μM ATP (Sigma Chemicals, St Louis, Mo.) and 300 μM peptide (American Peptide, Sunnyvale, Calif.). Reactions are carried out at 30° C. and 20 nM GSK-3β. Final concentrations of the components of the coupled enzyme system are 2.5 mM phosphoenolpyruvate, 300 μM NADH, 30 μg/ml pyruvate kinase and 10 μg/ml lactate dehydrogenase.
An assay stock buffer solution is prepared containing all of the reagents listed above with the exception of ATP and the test compound of interest. The assay stock buffer solution (175 μl) is incubated in a 96 well plate with 5 μl of the test compound of interest at final concentrations spanning 0.002 μM to 30 μM at 30° C. for 10 min. Typically, a 12 point titration is conducted by preparing serial dilutions (from 10 mM compound stocks) with DMSO of the test compounds in daughter plates. The reaction is initiated by the addition of 20 μl of ATP (final concentration 20 μM). Rates of reaction are obtained using a Molecular Devices Spectramax plate reader (Sunnyvale, Calif.) over 10 min at 30° C. The Ki values are determined from the rate data as a function of inhibitor concentration.

GSK-3β (AA 1-420), sequence (P49841 whole entry, the tested form may be a part): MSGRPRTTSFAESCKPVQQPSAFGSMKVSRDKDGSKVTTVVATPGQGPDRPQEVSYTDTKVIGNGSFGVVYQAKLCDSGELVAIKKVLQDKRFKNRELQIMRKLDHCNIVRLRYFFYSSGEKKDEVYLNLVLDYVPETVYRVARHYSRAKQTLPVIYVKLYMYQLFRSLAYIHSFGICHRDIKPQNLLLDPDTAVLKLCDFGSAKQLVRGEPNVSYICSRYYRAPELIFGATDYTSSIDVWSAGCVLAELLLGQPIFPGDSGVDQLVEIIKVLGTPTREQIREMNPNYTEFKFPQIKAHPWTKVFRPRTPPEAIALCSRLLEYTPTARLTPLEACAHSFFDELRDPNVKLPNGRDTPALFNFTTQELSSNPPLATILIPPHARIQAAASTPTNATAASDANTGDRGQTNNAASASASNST

Structure (SMILES)	Ki (FLT-3)	Ki (GSK-3β (AA 1-420)) [µM]
CC(=O)N1[C@H](C)CN(c2cc(-n3cnc(Nc4ccc(N5CCN(S(=O)(=O)c6ccc(C)cc6)CC5)cc4)n3)ccn2)C[C@@H]1C [Compound I-92]	0.03 to 0.2 µM	> 1
CC(=O)N1[C@H](C)CN(c2cc(-n3cnc(Nc4ccc(N5CCN(C(=O)OC(C)(C)C)CC5)cc4)n3)ccn2)C[C@@H]1C [Compound I-97, 4-(4-{1-[2-(4-Acetyl-3,5-dimethyl-piperazin-1-yl)-pyridin-4-yl]-1H-[1,2,4]triazol-3-ylamino}-phenyl)-piperazine-1-carboxylic acid tert-butyl ester]	0.001 to 0.03 µM	> 1
CCNC(=O)Nc1ccc(Nc2ncn(-c3ccnc(N4C[C@@H](C)N(C(C)=O)[C@@H](C)C4)c3)n2)cc1 [Compound I-98, 1-(4-{1-[2-(4-Acetyl-3,5-dimethyl-piperazin-1-yl)-pyridin-4-yl]-1H-[1,2,4]triazol-3-ylamino}-phenyl)-3-ethyl-urea]	0.001 to 0.03 µM	> 1
CCCNC(=O)Nc1ccc(Nc2ncn(-c3ccnc(N4C[C@@H](C)N(C(C)=O)[C@@H](C)C4)c3)n2)cc1 [Compound I-99]	0.001 to 0.03 µM	> 1
CC(=O)N1[C@H](C)CN(c2cc(-n3cnc(Nc4ccc(NC(=O)NC(C)C)cc4)n3)ccn2)C[C@@H]1C [Compound I-100]	0.001 to 0.03 µM	> 1
CC(=O)N1[C@H](C)CN(c2cc(-n3cnc(Nc4ccc(NC(=O)NC(C)(C)C)cc4)n3)ccn2)C[C@@H]1C [Compound I-101]	0.03 to 0.2 µM	> 1
CC(C)(C)CC(=O)Nc1cc(-n2cnc(Nc3ccccc3)n2)ccn1 [Compound I-102]	0.001 to 0.03 µM	> 1
c1ccc(-n2cnc(Nc3ccnc(N4CCOCC4)c3)n2)cc1 [Compound I-105]	0.001 to 0.03 µM	> 1
c1ccc(-n2cnc(Nc3ccc(N4CCOCC4)cc3)n2)cc1 [Compound I-106]	0.03 to 0.2 µM	> 1
c1ccc(-n2cnc(Nc3ccnc(NCCN4CCOCC4)c3)n2)cc1 [Compound I-107]	0.03 to 0.2 µM	> 1
c1ccc(-n2cnc(Nc3ccc(N4CCOCC4)nc3)n2)cc1 [Compound I-134]	0.03 to 0.2 µM and > 0.2 µM	> 1
CN1CCN(c2ccc(Nc3ncn(-c4ccccc4)n3)cn2)CC1 [Compound I-135]	0.03 to 0.2 µM	> 1

Other lines, results leading:

Ki (FLT-3)	Ki (GSK-3β (AA 1-420)) [µM]	Structure (SMILES)
< 0.06 µM	> 1	CC(=O)N1[C@H](C)CN(c2cc(-n3cnc(Nc4ccc(NC(=O)c5ccco5)cc4)n3)ccn2)C[C@@H]1C [Compound I-81, Furan-2-carboxylic acid (4-{1-[2-(4-acetyl-3,5-dimethyl-piperazin-1-yl)-pyridin-4-yl]-1H-[1,2,4]triazol-3-ylamino}-phenyl)-amide]
< 0.06 µM	> 1	CC(=O)N1[C@H](C)CN(c2cc(-n3cnc(Nc4ccc(N)cc4)n3)ccn2)C[C@@H]1C [Compound I-82]
0.03 to 0.2 µM	> 1	CC(=O)N1[C@H](C)CN(c2cc(-n3cnc(Nc4ccc(N5CCOCC5)cc4)n3)ccn2)C[C@@H]1C [Compound I-85, 1-(2,6-Dimethyl-4-{4-[3-(4-morpholin-4-yl-phenylamino)-[1,2,4]triazol-1-yl]-pyridin-2-yl}-piperazin-1-yl)-ethanone]
0.03 to 0.2 µM	> 1	CCCOC(=O)Nc1ccc(Nc2ncn(-c3ccnc(N4C[C@@H](C)N(C(C)=O)[C@@H](C)C4)c3)n2)cc1 [Compound I-88]
0.03 to 0.2 µM	> 1	CC(=O)N1[C@H](C)CN(c2cc(-n3cnc(Nc4ccc(NC(=O)OC(C)C)cc4)n3)ccn2)C[C@@H]1C [Compound I-89]
0.03 to 0.2 µM	> 1	CC(=O)N1[C@H](C)CN(c2cc(-n3cnc(Nc4ccc(NC(=O)OCC(C)C)cc4)n3)ccn2)C[C@@H]1C [Compound I-90]
0.03 to 0.2 µM	> 1	CC(=O)N1[C@H](C)CN(c2cc(-n3cnc(Nc4ccc(NC(=O)OCC(C)(C)C)cc4)n3)ccn2)C[C@@H]1C [Compound I-91]
0.001 to 0.03 µM	< 0.5	O=C(CC1CCCC1)Nc1cc(-n2cnc(Nc3ccccc3)n2)ccn1 [Compound I-94, 2-Cyclopentyl-N-[4-(3-phenylamino-[1,2,4]triazol-1-yl)-pyridin-2-yl]-acetamide]
0.001 to 0.03 µM	< 0.5	O=C(CCc1ccccc1)Nc1cc(-n2cnc(Nc3ccccc3)n2)ccn1 [Compound I-95]
0.001 to 0.03 µM	< 0.5	O=C(Cc1ccccc1)Nc1cc(-n2cnc(Nc3ccccc3)n2)ccn1 [Compound I-96]
